# Several values for one entry are separate records, joined by “and”; a condition that tells them apart may be missing. Identical values can stand only once. Entries after “also recorded” stand apart in the source; their conditions may differ.
# Tests used:
# [1] = test system: seizures in patients with Tuberous Sclerosis Complex (TSC); assay: Expanded access compassionate use program: CBD added to baseline AED in children and young adults with treatment-resistant Tuberous Sclerosis Complex, seizure diaries; type: in vivo, human
# Method: The terms “50% responder” and “50% reduction in seizure” are both terms used in clinical studies. In the present application the terms define the percentage of subjects that experienced a greater than or equal to 50% reduction in the total number of seizures during treatment with CBD in comparison to the number experienced during the baseline period before the CBD was administered.
# These subjects were tested with a highly purified extract of cannabidiol (CBD) obtained from a cannabis plant. The participants in the study were part of an expanded access compassionate use program for CBD.
# All of these patients diagnosed with TSC presented with one or more types of seizure including tonic, tonic-clonic, atonic, absence, focal seizures with impairment and focal seizures which evolve to secondary generalised seizures.
# All patients entered a baseline period of 4 weeks when parents/caregivers kept prospective seizure diaries, noting all countable seizure types.
# The patients then received a highly purified CBD extract (greater than 98% CBD w/w) in sesame oil, of known and constant composition, at a dose of 5 mg/kg/day in addition to their baseline anti-epileptic drug (AED) regimen.
# Laboratory testing for hematologic, liver, kidney function, and concomitant AED levels was performed at baseline, and after CBD therapy.
# All patients were taking at least two concomitant anti-epileptic drugs. These included clobazam; diazepam; lacosamide; lamotrigine; levetiracetam; lorazepam; nordiazepam; n-desmethylclobazam; phenytoin; valproic acid; zonisamide. The average number of concomitant antiepileptic drugs being taken was 2.7. The majority took either clobazam and/or valproic acid.
# There were 12 children and young adult patients who received at least 3 months of treatment all of whom suffered from treatment-resistant epilepsy with a diagnosis of Tuberous Sclerosis Complex (TSC).
# [2] = Solubility of the drug substance in water; type: physicochemical
# Source text: The drug substance, CBD is insoluble in water. Sesame oil was selected as an excipient to solubilize the drug substance.
# [3] = test system: seizures in adult patients; conditions: 200 mg/day of pure CBD; four adult patients; cited from earlier work
# [4] = test system: seizures in adult patients with generalized epilepsy; conditions: eight adult patients with generalized epilepsy; cited from earlier work
# [5] = test system: seizures in mice; conditions: after pro-convulsant drugs or an electric current; cited from earlier work
# [6] = test system: seizures in institutionalized adult patients; conditions: 200 mg/day of pure CBD; twelve institutionalized adult patients; open label; cited from earlier work
# [7] = test system: seizures in a child with Lennox-Gastaut syndrome; conditions: CBD in an oily solution; cited from earlier work
# [8] = test system: seizures; conditions: as described in the literature; cited from earlier work
# [9] = share of patients, n = 2, after 12 weeks of treatment
# [10] = share of patients, n = 3, after 12 weeks of treatment
# [11] = share of patients, n = 5, after 12 weeks of treatment
# [12] = share of patients, n = 10, after 12 weeks of treatment
# [13] = share of patients, n = 14, after 12 weeks of treatment
structure (smiles),measurement,setting,value
"C=C(C)[C@@H]1CCC(C)=C[C@H]1c1c(O)cc(CCCCC)cc1O [CBD, cannabidiol]",patients with at least a fifty percent reduction in the total number of seizures,[1]; TSC patients resistant to existing AED,half of the patients
same,patients treated in whom total seizure frequency was reduced,"[1]; TSC patients, 12 treated",over 80%
same,"effect on incidence of generalised seizure types tonic, atonic, tonic-clonic and absence seizures","[1]; TSC patients, result in words",dramatically reduce; also recorded: virtually eliminate
same,effect on the number of focal seizures with impairment,"[1]; TSC patients, result in words",markedly reduced
same,TSC patients with a decrease in total seizure frequency,"[1]; after 3 months of therapy, 12 patients",ten out of 12
same,>50% reduction in seizures (total number of seizures),"[1]; individual TSC subjects 1-12, after 12 weeks treatment",Yes (6×) and No (6×)
same,Change in baseline (%) for total number of seizures,"[1]; individual TSC subjects 1-12, after 12 weeks treatment, CBD 5 up to 25 mg/kg/day added to AED",−93.7% and −15.0% and −71.0% and −33.5% and −80.2% and 0.4% and −100.0% and −9.8% and −74.4% and 108.0% and −39.2% and −63.2%
same,TSC patients with a greater than 50% reduction in total seizures,"[1]; over the 12 weeks of treatment, 12 patients",six of the 12
same,effect on the number of seizures,"[1]; patients that do not respond well to existing AED, result in words",significantly reduces
same,"<50% reduction in seizures, absence seizures",[1]; [9],0%
same,"<50% reduction in seizures, focal seizures evolving to secondary generalisation",[1]; [9],50%
same,"<50% reduction in seizures, tonic-clonic seizures",[1]; [9],0%
same,">50% reduction in seizures, absence seizures",[1]; [9],100%
same,">50% reduction in seizures, focal seizures evolving to secondary generalisation",[1]; [9],50%
same,">50% reduction in seizures, tonic-clonic seizures",[1]; [9],100%
same,"<50% reduction in seizures, atonic seizures",[1]; [10],0%
same,">50% reduction in seizures, atonic seizures",[1]; [10],100%
same,"<50% reduction in seizures, tonic seizures",[1]; [11],25%
same,">50% reduction in seizures, tonic seizures",[1]; [11],75%
same,"<50% reduction in seizures, focal seizures with impairment",[1]; [12],45%
same,">50% reduction in seizures, focal seizures with impairment",[1]; [12],55%
same,"<50% reduction in seizures, total focal seizures",[1]; [13],55%
same,">50% reduction in seizures, total focal seizures",[1]; [13],45%
same,average reduction in the total number of seizures in the responders,"[1]; the patients with at least 50% reduction, 12 weeks of treatment",80.4% and 80%
same,solubility in water,[2],insoluble
same,patients who became seizure free,[3],two of the four
same,patients with a marked reduction of seizures,[4],4
same,prevention of seizures,[5],able to prevent seizures
same,controlling seizures,[6],ineffective
same,seizure frequency,[7],improvement
"CCCCCc1cc(O)c2c(c1)OC(C)(C)[C@@H]1CCC(C)=C[C@@H]21 [THC, tetrahydrocannabinol]",effect on seizures,[8],pro-convulsant

# Source: US11065209B2, “Use of cannabidiol in the treatment of epilepsy” (GW Research Limited, priority 2015, dated 2021)
